PMC9136613 (Acta Pharmaceutica Sinica. B, 2022)

Molecular target: T1, CCT4 (Homo sapiens, UniProt P50991)
T1 sequence (P50991 2-539): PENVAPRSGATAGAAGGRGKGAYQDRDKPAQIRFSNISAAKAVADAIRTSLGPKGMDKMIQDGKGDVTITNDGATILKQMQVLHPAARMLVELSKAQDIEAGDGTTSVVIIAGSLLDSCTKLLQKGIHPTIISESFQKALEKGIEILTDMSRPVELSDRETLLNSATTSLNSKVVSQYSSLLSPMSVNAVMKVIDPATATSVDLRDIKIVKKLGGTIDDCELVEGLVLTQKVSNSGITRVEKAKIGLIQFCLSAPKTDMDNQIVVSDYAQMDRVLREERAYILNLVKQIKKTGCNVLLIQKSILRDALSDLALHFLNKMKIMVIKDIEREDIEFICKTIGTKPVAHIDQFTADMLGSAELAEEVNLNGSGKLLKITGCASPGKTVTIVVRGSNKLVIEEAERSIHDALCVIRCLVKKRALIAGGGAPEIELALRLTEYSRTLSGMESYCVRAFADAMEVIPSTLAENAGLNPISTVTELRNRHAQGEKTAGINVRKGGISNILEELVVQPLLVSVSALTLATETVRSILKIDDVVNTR
Assay: SPR on immobilized recombinant CCT4
Type: binding

Kd: ~2.2 µM
Substance: anticarin-β
